From patent US20240109914A1, “IMIDAZOTHIAZOLE COMPOUNDS AND ANALOGS THEREOF AND METHODS FOR TREATING NEMATODE INFECTIONS IN PLANTS” (The Governing Council of The University of Toronto, priority 2021, published 2024)
Read-outs that look alike come from different tables or passages of the source.

Experiments:
[1] = tested on: C. elegans; experiment: C. elegans dose-response (viability, minimum lethal concentration); assay type: in vivo, Caenorhabditis elegans
Description: Forty microliters of an HB101 E. coli bacterial suspension in liquid NGM (nematode growth media—see ref. 42 for the recipe) was added to each well of a 96-well flat-bottom culture plate, after which approximately 25 synchronized L1 worms, in 10 μl of M9 buffer (see ref. 43 for the recipe), were added to each well. The synchronized L1 worms were obtained from an embryo preparation performed the previous day (see ref. 43 for the protocol). For the L1 assays, 0.5 μl of test compound solution (or DMSO alone) was immediately added to the wells using a multichannel pipette; the final DMSO concentration is 1% (v/v). The worms were incubated for 3 days at 20° C. and the number of viable animals was counted.
At least three biological replicates were performed for each dose-response assay. For each biological replicate, two technical replicates were performed and the numbers of viable animals for each technical replicate were combined (i.e. ˜ 50 worms assayed per concentration). The number of viable worms at each concentration was divided by the corresponding DMSO control value to give the “relative viability” for each concentration. The “relative viability” values were then averaged across the biological replicates. Minimum lethal concentration was defined as the lowest concentration at which at least 20% of worms die.

[2] = tested on: M. incognita J2 larvae; experiment: Meloidogyne incognita in vitro larval mobility assay; assay type: in vivo; settings: 45 μM, 4 days; for Replicate 1 z-score / Replicate 2 z-score: z-score vs untreated DMSO wells; for pest or weed control at 45 µM: Meloidogyne incognita, 96 h
Outline: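 Infective J2 juveniles of M. incognita Race 1, about 35 per well, were exposed to compound at 45 μM in deionized water with 0.5% DMSO for 4 days at 25° C without shaking. Immobile worms were counted as % of total, averaged over two replicates. A z-score against DMSO control wells was also computed, with z > 1.645 in both replicates marking a hit.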

[3] = tested on: M. chitwoodi J2 larvae; experiment: Meloidogyne chitwoodi in vitro larval mobility assay; assay type: in vivo; settings: 2 days, average of three replicates; for pest or weed control at 45 µM: Meloidogyne chitwoodi, 48 h, read-out: % Immobile
Description: M. chitwoodi race 1 (the strain commonly found in the pacific northwest of the United States) was used for all experiments, and was maintained on tomato plants (Solanum lycopersicum ‘Rutgers’) as previously described^47. The microwell dose-response experiments were carried out similarly to previously described protocols^44,46. […] The chemicals were tested at 45 μM, and the final concentration of DMSO in each well was 0.5% (v/v). The wells were covered with a plastic adhesive strip, and the lids of the plates were sealed with parafilm. The plates were incubated at 25° C. for 2 days. The percent of worms that were immobile (% immobile) was quantified by counting the number of immobile worms after 2 days of incubation, dividing the number of immobile worms by the total number of worms in the well, and then multiplying by 100. […] The average % immobile value was calculated across the three replicates.

[4] = tested on: M. incognita; experiment: Meloidogyne incognita infectivity assay (soil, tomato roots); assay type: in vivo; settings: 45 μM in soil, 8 weeks, eggs per mg root relative to DMSO control; for pest or weed control at 45 µM: Meloidogyne incognita, 1344 h, read-out: % effectiveness at inhibiting reproduction of M. incognita
From the text: An M. incognita population originally collected from grape (Vitis vinifera) in Parlier, California, was used for all experiments, and they were maintained on tomato plants (Solanum lycopersicum ‘Rutgers’) as previously described^47. Infective J2 juveniles were collected as described in ref. 47.

[5] = tested on: HepG2 cells; experiment: HepG2 cell proliferation assay; assay type: cell-based, human
Description: HepG2 cells, which are liver-derived, were counted using a haemocytometer, diluted, and seeded in […] to a final density of 5×10^4 cells/mL in 100 uL of RPMI-1640 medium supplemented with 10% heat inactivated fetal bovine serum (Gibco) and 1.2× Antibiotic-Antimycotic (Gibco). Cells were incubated at 37° C. with 5% CO2 for 24 hours. Subsequently, a 2-fold dilution series of test compound was added to cells at a final volume of 200 uL and incubated at 37° C. with 5% CO2 for 72 hours. After 72 hours, Alamar Blue (Invitrogen) was added to the Hep G2 cells at a final concentration of 0.5× and plates were incubated at 37° C. for 4 hours. Fluorescence was measured at Ex560 nm/Em590 nm and corrected for background from the medium. All assays were performed in technical triplicates and in at least two biological replicates. The IC50 value was defined as the concentration that inhibits cell proliferation by 50% of the untreated control cells.

[6] = Zebrafish dose-response experiments; assay type: in vivo, Danio rerio; settings: TLAB (wild-type), zebrafish (Danio rerio), in vivo; bound inferred from the tested concentrations, 3 days exposure
Description: (§1) Zebrafish were maintained and handled under the guidance and approval of the Canadian Council on Animal Care and the Hospital for Sick Children Laboratory Animal Services. Dose-response assays were performed using zebrafish (Danio rerio) at 3 days post-fertilization. Three wild-type (TLAB) embryos were analyzed in each well of a 24-well plate containing 1 mL of E3 medium (5 mM NaCl, 0.17 mM KCl, 0.33 mM CaCl2, 0.33 mM MgSO4). Test compounds were added to each well to reach final concentrations of 45 μM, 15 μM, and 5 μM (0.5% v/v DMSO), as well as a DMSO control well. The viability of the fish was assessed after 3 days of test compound exposure using a Zeiss standard dissection microscope.

[7] = tested on: Zebrafish; experiment: Zebrafish dose-response experiments; assay type: in vivo, Danio rerio; settings: for Zebrafish LC100: lowest concentration at which all of the fish are dead, 45, 15, 5 μM tested
Description: as §1

[8] = tested on: tomato plants; experiment: Root mass of tomato plants in the soil infectivity assay; settings: 45 μM in soil, 8 weeks
Description: For the infectivity assays, 90 grams of soil (1:1 sand:loam mix) was added to each cell of several 6-cell plastic garden packs. The soil was drenched with 18 mL of deionized water containing dissolved test compound or DMSO alone. 2,500 infective J2 juveniles were then added to the soil in 2 mL of deionized water, for a total water volume of 20 mL. […] The DMSO concentration varied from 0.1% to 0.8% (v/v) depending on the stock concentration of the test compound. The highest DMSO concentration was used as the DMSO control. The J2s were incubated in the soil and chemical for 24 hours, after which two- to three-week old tomato seedlings were transplanted into the soil (one plant per cell). Two replicates were performed for each chemical treatment, and four replicates were done for the DMSO controls. The whole experiment was replicated twice, in two different batches on two different days, for a total of four replicates for each test compound treatment, and eight replicates for the DMSO controls. Inoculated plants were grown for 8 weeks in a greenhouse, as described^47, under long-day conditions (16-h photoperiod) with 26/18° C. day/night temperatures. After 8 weeks, the plants were destructively harvested. The tops were removed and discarded, and roots were gently washed with water to remove adhering soil. Eggs were extracted by placing rinsed roots in 0.6% sodium hypochlorite and agitating at 300 rpm for 3 min. Roots were then rinsed over nested 250—and 25.4-μm sieves, with eggs collected from the latter and suspended in water. Roots were dried in a 65° C. oven for at least 24 hours, after which dry roots were weighed. The number of eggs from each plant root was counted on a dissection microscope using a haemocytometer, and the number of eggs per milligram of root was calculated by dividing the total egg number by the mass of the dried root material. An average was taken across the replicates performed on the same day, and then normalized to the DMSO control average. […] An average percent effectiveness value was then calculated across the two different batches carried out on different days.

[9] = tested on: M. hapla eggs; experiment: Meloidogyne hapla in vitro egg hatch assay; assay type: in vivo; settings: 45 μM; for Number of Hatched Eggs: 8 days at room temperature, about 90 eggs per well, tested once; for Number of Hatched Eggs z-score: 8 days, z-score vs 8 untreated DMSO wells
Outline: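 About 90 eggs per well, freed from carrot-root egg masses with 10% bleach for 4 min, were exposed in deionized water to 0.5 μL compound or DMSO. Hatched eggs were counted after 8 days at room temperature without shaking in humid conditions. Each treatment was tested once, with z-scores calculated from 8 untreated DMSO control wells.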

[10] = tested on: M. chitwoodi; experiment: Meloidogyne chitwoodi infectivity assay (soil, tomato roots); assay type: in vivo; settings: 45 μM in soil, 8 weeks, egg counts relative to DMSO control
Description: M. chitwoodi race 1 (the strain commonly found in the pacific northwest of the United States) was used for all experiments, and was maintained on tomato plants (Solanum lycopersicum ‘Rutgers’) as previously described^47. The M. chitwoodi infectivity assays were performed identically to the M. incognita infectivity assays (see above), with the exception that egg counts were not normalized to the mass of the roots. Four technical replicates were performed in a single batch.

[11] = Caenorhabditis elegans, 72 h, L1 worms, 3 days at 20° C., lowest concentration at which at least 20% of worms die, read-out: Minimum Lethal Concentration
[12] = Caenorhabditis elegans, 72 h, L1 worms, 3 days at 20° C., same values in ppm, read-out: Minimum Lethal Concentration (ppm)
[13] = average of the two replicates, read-out: Average % Immobile
[14] = replicate 1, read-out: Replicate 1 % Immobile
[15] = replicate 2, read-out: Replicate 2 % Immobile
[16] = 72 hours, Alamar Blue, cell proliferation

Row | Compound | minimal effective concentration [1, 11] [µM] | minimal effective concentration [1, 12] [µg/mL] | Replicate 1 z-score ([2]; replicate 1) | Replicate 2 z-score ([2]; replicate 2) | pest or weed control at 45 µM [2, 13] [%] | pest or weed control at 45 µM [2, 14] [%] | pest or weed control at 45 µM [2, 15] [%] | pest or weed control at 45 µM [3] [%] | pest or weed control at 45 µM [4] [%] | Zebrafish LC100 ([7]; 3 days exposure) [µM] | Normalized root mass (relative to DMSO control) [8] | Number of Hatched Eggs [9] | Number of Hatched Eggs z-score [9] | % effectiveness at inhibiting reproduction of M. chitwoodi [10] [%] | further results
1 | Clc1ccc(-c2cn3ccsc3n2)nc1 [I-46] | 100 | 23.6 | [10.33] | [12.18] | ≥ 75 | 73.2 | 77.1 | 56.4 | 37.7 | >45 | 1.56 | – | – | – | IC50 ([5]; Homo sapiens, HepG2, 72 hours, Alamar Blue, cell proliferation): > 100 µM; HepG2 IC50 (ppm) ([5]; approximate ppm equivalent of 100 μM): > 23 ppm; LC50 at 3 days [6]: > 45 µM; lethality to zebrafish ([7]; concentrations up to 45 μM, the highest concentration tested): non-lethal
2 | Cc1c(-c2ccc(F)cc2)nc2sccn12 [I-13] | > 100 | > 23.2 | [2.58] | [2.14] | 28.4 | 35.3 | 21.6 | 32.4 | 0 | – | 1.12 | – | – | – | –
3 | Cc1c(-c2ccc(Br)cc2)nc2sccn12 [I-33] | 12.5 | 3.7 | [1.78] | [4.16] | 32.1 | 31.4 | 32.8 | 58.1 | 7.9 | – | 1.45 | – | – | – | –
4 | CCc1ccc(-c2cn3ccsc3n2)cc1 [I-7] | 50 | 11.4 | [10.58] | [3.55] | 51.9 | 74.5 | 29.4 | > 75 | – | – | – | 1 | [4.30] | 59.3 | –
5 | c1ccc(-c2noc(-c3cccs3)n2)cc1 [tioxazafen, reference compound] | – | – | [14.82] | [21.99] | – | – | – | – | – | 15 | 1.09 | 1 | [4.30] | – | minimal effective concentration ([1]; L1 worms, 3 days at 20° C., lowest concentration at which at least 20% of worms die, read-out: Minimum Lethal Concentration): 3.125 µM; Minimum Lethal Concentration (ppm) ([1]; L1 worms, 3 days at 20° C., same values in ppm): 0.7 ppm; times more potent at killing C. elegans than compound I-46 ([1]; tioxazafen versus compound I-46, minimum lethal concentration): 32; Average % Immobile ([2]; average of the two replicates): 100.00%; Replicate 1 % Immobile ([2]; replicate 1): 100.00%; Replicate 2 % Immobile ([2]; replicate 2): 100.00%; % Immobile ([3]; 45 μM): 42.7%; % effectiveness at inhibiting reproduction of M. incognita [4]: 43.7%; HepG2 IC50 [5, 16]: relatively inactive; IC50 [5, 16]: > 100 µM; LC50 ([7]; bound inferred from the tested concentrations, 3 days exposure): ≤ 15 µM; times more potent at killing fish than compound I-46 ([7]; tioxazafen versus compound I-46, zebrafish): at least 3
6 | CCc1ccc(-c2cn3cc(C)sc3n2)cc1 [I-10] | 6.25 | 1.5 | – | – | – | – | – | – | 18.5 | – | 1.30 | – | – | 63.7 | –
